This note sets out measurements from PubChem BioAssay AID328 (DTP/NCI, 2004).

Where “and” joins values, the source holds several entries; their conditions need not be identical. Equal entries are not always repeated. Toxic doses and inconclusive results are not listed.

The assay deals with BDF1 mice, P388 leukemia ip, median survival T/C. Description: NCI In Vivo Anticancer Drug Screen. Data for tumor model P388 Leukemia (intraperitoneal) in B6D2F1 (BDF1) mice. Conditions: endpoint: median survival time, higher = longer survival. A digest of the protocol: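 Read-out is survival of treated animals expressed relative to the vehicle group, as a T/C ratio.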
Where [1] appears, read: dose: 50.0 mg/kg/injection, schedule: Q01DX009 (ip), vehicle: saline with Tween-80.
[2] abbreviates: dose: 100.0 mg/kg/injection, schedule: Q04DX003 (ip), vehicle: saline with Tween-80.
Where [3] appears, read: dose: 200.0 mg/kg/injection, schedule: Q04DX003 (ip), vehicle: saline with Tween-80.
Setting [4] is: dose: 100.0 mg/kg/injection, schedule: Q01DX009 (ip), vehicle: saline with Tween-80.
Setting [5] is: dose: 200.0 mg/kg/injection, schedule: Q01DX009 (ip), vehicle: saline with Tween-80.
The mark [6] stands for this setting: dose: 50.0 mg/kg/injection, schedule: Q01DX009 (ip), vehicle: saline.
The mark [7] stands for this setting: dose: 100.0 mg/kg/injection, schedule: Q01DX009 (ip), vehicle: saline.

In the case of `Cc1cccc(NC=O)c1`, the T/C under setting [1] was 109 % of control; the T/C (dose: 75.0 mg/kg/injection, schedule: Q01DX009 (ip), vehicle: saline with Tween-80) is 113 % of control; the T/C under setting [2] is 115 % of control; the T/C (dose: 115.0 mg/kg/injection, schedule: Q01DX009 (ip), vehicle: saline with Tween-80) is 104 % of control; the T/C under setting [3] was 96 % of control; the T/C (dose: 225.0 mg/kg/injection, schedule: Q01DX009 (ip), vehicle: saline with Tween-80) was 109 % of control. The T/C reads like this: (dose: 300.0 mg/kg/injection, schedule: Q01DX009 (ip), vehicle: saline with Tween-80) 113 % of control; (dose: 400.0 mg/kg/injection, schedule: Q04DX003 (ip), vehicle: saline with Tween-80) 96 % of control.
For `C=C(C)[C@@H]1CC[C@]2(CO)CC[C@]3(C)[C@H](CC[C@@H]4[C@@]5(C)CC[C@H](O)C(C)(C)[C@@H]5CC[C@]43C)[C@@H]12`, the T/C by setting is: (dose: 10.0 mg/kg/injection, schedule: Q01DX009 (ip), vehicle: saline with Tween-80) 94 % of control; (dose: 20.0 mg/kg/injection, schedule: Q01DX009 (ip), vehicle: saline with Tween-80) 99 % of control; (dose: 40.0 mg/kg/injection, schedule: Q01DX009 (ip), vehicle: saline with Tween-80) 100 % of control; (dose: 75.0 mg/kg/injection, schedule: Q01DX009 (ip), vehicle: other) 97 % of control; (dose: 80.0 mg/kg/injection, schedule: Q01DX009 (ip), vehicle: saline with Tween-80) 95 % of control; (dose: 100.0 mg/kg/injection, schedule: Q01DX009 (ip), vehicle: Klucel (hydroxypropylcellulose) (HPC)) 101 % of control. Further, the T/C reads like this: (dose: 150.0 mg/kg/injection, schedule: Q01DX009 (ip), vehicle: other) 106 % of control; (dose: 200.0 mg/kg/injection, schedule: Q01DX009 (ip), vehicle: Klucel (hydroxypropylcellulose) (HPC)) 98 % of control; (dose: 400.0 mg/kg/injection, schedule: Q01DX009 (ip), vehicle: Klucel (hydroxypropylcellulose) (HPC)) 111 % of control.
Take `S=c1[nH]c2ccccc2s1.[Zn+2]`: the T/C by setting is: under setting [1], 98 % of control; under setting [4], 100 % of control; under setting [5], 99 % of control.
On to `Nc1nc(-c2cccnc2)cc2ccccc12`, for which the T/C (dose: 12.5 mg/kg/injection, schedule: Q04DX003 (ip), vehicle: saline with Tween-80) was 106 % of control and the T/C (dose: 25.0 mg/kg/injection, schedule: Q04DX003 (ip), vehicle: saline with Tween-80) was 91 % of control.
As for `COc1cc(O)c2c(c1O)C(=O)c1cc(C)ncc1C2=O`, the T/C under setting [4] was 91 % of control; the T/C under setting [5] was 91 % of control; the T/C (dose: 400.0 mg/kg/injection, schedule: Q01DX009 (ip), vehicle: saline with Tween-80) was 91 % of control.
Regarding `Cc1cc(N(CCCl)CCCl)ccc1C=Nc1ccccc1C(=O)O`, the T/C under setting [4] is 164 % of control and the T/C under setting [5] was 180 % of control.
Turning to `CCCCN=CC(C)(C)NCCCC`, the T/C is 91 % of control and 99 % of control under setting [6]; 103 % of control (dose: 50.0 mg/kg/injection, schedule: Q04DX003 (ip), vehicle: saline); 98 % of control and 107 % of control under setting [7]; 103 % of control (dose: 100.0 mg/kg/injection, schedule: Q04DX003 (ip), vehicle: saline); 100 % of control (dose: 200.0 mg/kg/injection, schedule: Q04DX003 (ip), vehicle: saline).
With `O=C1c2ccccc2C(=O)N1c1cc(O)cc(O)c1`, the T/C runs as follows: (dose: 1.0 mg/kg/injection, schedule: Q01DX009 (ip), vehicle: water) 109 % of control; (dose: 2.0 mg/kg/injection, schedule: Q01DX009 (ip), vehicle: water) 113 % of control; (dose: 4.0 mg/kg/injection, schedule: Q01DX009 (ip), vehicle: water) 95 % of control and 98 % of control and 105 % of control; (dose: 8.0 mg/kg/injection, schedule: Q01DX009 (ip), vehicle: water) 90 % of control and 95 % of control; (dose: 16.0 mg/kg/injection, schedule: Q01DX009 (ip), vehicle: water) 100 % of control and 115 % of control; (dose: 20.0 mg/kg/injection, schedule: Q01DX009 (ip), vehicle: water) 101 % of control. Moreover, the T/C runs as follows: (dose: 32.0 mg/kg/injection, schedule: Q01DX009 (ip), vehicle: water) 109 % of control; (dose: 50.0 mg/kg/injection, schedule: Q04DX003 (ip), vehicle: water) 100 % of control; (dose: 100.0 mg/kg/injection, schedule: Q04DX003 (ip), vehicle: water) 106 % of control; (dose: 200.0 mg/kg/injection, schedule: Q04DX003 (ip), vehicle: water) 97 % of control; (dose: 400.0 mg/kg/injection, schedule: Q04DX003 (ip), vehicle: water) 92 % of control.
Consider `COc1cc2c(cc1OC)-c1ccc3cc4c(cc3c1N(C)C2)OCO4`, for which the T/C reads like this: (dose: 10.0 mg/kg/injection, schedule: Q01DX009 (ip), vehicle: other) 123 % of control; (dose: 40.0 mg/kg/injection, schedule: Q01DX009 (ip), vehicle: other) 155 % of control.
For `O=[N+]([O-])c1ccc(NCc2ccccc2)c2c1no[n+]2[O-]`, the T/C (dose: 35.0 mg/kg/injection, schedule: Q01DX009 (ip), vehicle: saline with Tween-80) is 92 % of control; the T/C (dose: 70.0 mg/kg/injection, schedule: Q01DX009 (ip), vehicle: saline with Tween-80) is 91 % of control; the T/C (dose: 140.0 mg/kg/injection, schedule: Q01DX009 (ip), vehicle: saline with Tween-80) is 92 % of control.
On to `CS(=O)(=O)OCCN1CCC2(CC1)SSC1(CCN(CCOS(C)(=O)=O)CC1)S2`, for which the T/C is 95 % of control and 96 % of control (dose: 3.12 mg/kg/injection, schedule: Q01DX009 (ip), vehicle: saline); 115 % of control (dose: 6.25 mg/kg/injection, schedule: Q01DX009 (ip), vehicle: saline); 122 % of control (dose: 7.5 mg/kg/injection, schedule: Q04DX003 (ip), vehicle: saline); 154 % of control (dose: 10.0 mg/kg/injection, schedule: Q01DX009 (ip), vehicle: saline); 109 % of control and 115 % of control (dose: 12.5 mg/kg/injection, schedule: Q01DX009 (ip), vehicle: saline); 122 % of control (dose: 12.5 mg/kg/injection, schedule: Q04DX003 (ip), vehicle: saline).
Consider `CC1(C)C/C(=C\c2ccc(Cl)cc2)C(=O)c2ccccc21`, for which the T/C (dose: 100.0 mg/kg/injection, schedule: Q04DX003 (ip), vehicle: Klucel (hydroxypropylcellulose) (HPC)) is 100 % of control; the T/C (dose: 200.0 mg/kg/injection, schedule: Q04DX003 (ip), vehicle: Klucel (hydroxypropylcellulose) (HPC)) is 100 % of control; the T/C (dose: 400.0 mg/kg/injection, schedule: Q04DX003 (ip), vehicle: Klucel (hydroxypropylcellulose) (HPC)) was 91 % of control.
On to `CCOP(=O)(OCC)ON1C(=O)c2cccc3cccc(c23)C1=O`, for which the T/C is, setting by setting: (dose: 0.78 mg/kg/injection, schedule: Q01DX009 (ip), vehicle: Klucel (hydroxypropylcellulose) (HPC)) 97 % of control; (dose: 1.56 mg/kg/injection, schedule: Q01DX009 (ip), vehicle: Klucel (hydroxypropylcellulose) (HPC)) 99 % of control.
In the case of `CN(C)c1ccc(/C=C/c2ccnc3ccccc23)cc1`, the T/C (dose: 5.0 mg/kg/injection, schedule: Q01DX010 (ip), vehicle: saline) was 95 % of control and 100 % of control; the T/C (dose: 9.0 mg/kg/injection, schedule: Q01DX010 (ip), vehicle: saline) was 100 % of control; the T/C (dose: 10.0 mg/kg/injection, schedule: Q01DX010 (ip), vehicle: saline) is 95 % of control and 100 % of control; the T/C (dose: 18.0 mg/kg/injection, schedule: Q01DX010 (ip), vehicle: saline) was 109 % of control; the T/C (dose: 20.0 mg/kg/injection, schedule: Q01DX010 (ip), vehicle: saline) is 90 % of control and 100 % of control; the T/C (dose: 35.0 mg/kg/injection, schedule: Q01DX010 (ip), vehicle: saline) was 109 % of control. Also, for the setting “dose: 40.0 mg/kg/injection, schedule: Q01DX010 (ip), vehicle: saline”, the T/C is 100 % of control.
As for `CC1CCC2(CC1)NC(=O)N(CNc1ccccc1)C2=O` (stereo unspecified), the T/C (dose: 50.0 mg/kg/injection, schedule: Q04DX003 (ip), vehicle: saline with Tween-80) was 100 % of control; the T/C under setting [2] was 87 % of control; the T/C under setting [3] was 100 % of control.
On to `CSc1ncncc1N`, for which the T/C runs as follows: under setting [6], 105 % of control; under setting [7], 105 % of control.
